Consider 4 compounds from patent US6509001B1, “Calcitonin receptor binding reagents” (Diatide, Inc., priority 1997, dated 2003).

Where two headings read alike, the source gives them in different places. Starred links: 1 amine or outer side, 2 acyl side, 3 side chain; linkers in the order of their positions; H or OH if unused. Positions of bridges follow the written chain, without caps; N, C: chain ends. Non-standard residues stand in square brackets, D forms with d. Residues, ends and D or L forms follow the SMILES beside them. *: point of attachment. X2 = NCCCC[C@H](NC(=O)[C@H](CS)NC(=O)[C@H](CCCCN)NC(=O)[C@@H](N)CNC(=O)C*)C(N)=O; X1 = NCCCC[C@H](NC(=O)[C@H](CS)NC(=O)CNC(=O)CNC(=O)C*)C(N)=O; hhCys(CH2CO) = O=C([C@H](CCCSCC(=O)[*:3])N[*:1])[*:2]; εLys = N[C@@H](CCCCN[*:1])C(=O)[*:2]; X3 = CC(C)(S)CNCCN(CCCCC*)CC(C)(C)S

For series [1], the target named is T1, CT receptor (Homo sapiens, UniProt P30988).
T1 construct: Assays using microsomal membrane fractions of rat brain and T-47D cells; host or cells: T-47D
T1 sequence (P30988 25-474): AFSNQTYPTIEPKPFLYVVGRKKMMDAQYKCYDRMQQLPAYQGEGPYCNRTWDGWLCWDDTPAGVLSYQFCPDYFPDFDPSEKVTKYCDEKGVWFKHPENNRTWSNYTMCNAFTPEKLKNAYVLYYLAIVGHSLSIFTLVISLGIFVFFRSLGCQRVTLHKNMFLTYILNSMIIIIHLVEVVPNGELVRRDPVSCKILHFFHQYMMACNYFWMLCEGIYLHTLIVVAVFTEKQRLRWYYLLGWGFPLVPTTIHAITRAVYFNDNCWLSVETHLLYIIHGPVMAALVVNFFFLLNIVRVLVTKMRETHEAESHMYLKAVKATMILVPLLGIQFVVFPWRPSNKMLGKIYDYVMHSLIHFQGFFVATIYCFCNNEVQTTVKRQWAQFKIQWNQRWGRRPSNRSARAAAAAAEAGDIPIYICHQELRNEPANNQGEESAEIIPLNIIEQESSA
The series can be described thus: Displacement of 125I-CT from CT receptor in T-47D cell membranes. It counts as binding. On the procedure: (§1) Peptide reagents within the scope of the invention, or ReO complexed embodiments thereof, were tested using in vitro assays that measure their ability to inhibit the specific binding of ^125I-CT to the CT receptor, using membranes from rat brain or from a breast tumor cell line, and on whole cells from breast tumor cell lines, as described in detail below.
(§2) Assays using microsomal membrane fractions of rat brain and T-47D cells (obtained from the American Type Culture collection, Rockville, Md., ATCC Accession No. HTB-133) were used to identify analogs with high affinity for the CT receptor according to the method of Fisher et al. (1977, British J. Cancer 35: 777-784). Briefly, tissue was minced and homogenized. The membranes were washed several times, assayed for protein content and used in the binding assay. Membrane protein was incubated with 0.1 μCi of ^125I-salmon CT (Amersham, Cleveland, Ohio) in he presence or absence of varying concentrations of reagents to be tested. Both uncomplexed and ReO complexed reagents were tested. One hundred percent specific binding of ^125I-CT to the CT receptor was defined as the difference between total ^125I-CT binding and nonspecific binding of ^125I-CT measured in the presence of a receptor-saturating concentration (1 μM) of excess unlabeled salmon CT (Sigma, St. Louis, Mo.).
Background: Displacement assays read how much labelled ligand stays bound in the presence of the test substance.

Series [2] addresses CT receptor. Nature of the series: Displacement of 125I-CT from CT receptor in rat brain membranes. It counts as binding. The conditions noted are these: displacement of 125I-CT (Table III). On the procedure: as §1, §2
Series [3] in a line: Biodistribution of 99mTc-CT peptide, T-47D tumor in nude mouse. The conditions noted are these: 0.025 mCi, total radioactivity, 99mTc-labeled peptide; for tissue uptake dose at […]: 90 minutes. It counts as in vivo. From the text:
(§3) Breast cancer cell lines were screened for receptor expression and the best cell lines chosen for xenograft implantation in immune deficient mice. These tumor models were used to evaluate the tumor targeting potential in vivo of the high affinity peptides identified in the in vitro assays above.
(§4) CT receptor expressing breast cancer cells (T47D and MCF-7) were implanted into immune deficient mice or Sprague-Dawley rats and allowed to grow tumors. For testing new ^99mTc-CT peptides, tumor-bearing mice or rats were injected with approximately 0.025 mCi at approximately 6 mCi/10 nmol peptide. The animals were cervically dislocated and imaged statically for 5 minutes using a gamma camera. The biodistribution of the ^99mTc-CT peptide was then determined by counting blood, tumor, target organs and muscle in a gamma counter along with standard aliquots of the injected dose. The time points for biodistribution were chosen to represent early, middle and late phases of ^99mTc-CT analog clearance. […] To assess the tumor imaging potential of selected analogs, the ratio of radioactivity in blood and various tissues were compared to that in tumor.

For series [4], the system named is T-47D tumor. The series is described as above. It counts as in vivo. The conditions noted are these: 99mTc-labeled peptide, 90 minutes.
Source text: as §3, §4

Series [5] is described as follows: Biodistribution of 99mTc-CT peptide in rat. It counts as in vivo. The note with it: 99mTc-labeled peptide; for tissue uptake dose at […] / tissue uptake at […]: 0.025 mCi; for tissue uptake dose at […]: 90 minutes; for tissue uptake at […]: 90 minutes post-injection. On the procedure: as §4
Setting [6] is: T-47D membranes, displacement of 125I-CT (Table III).
Setting [7] is: T-47D membranes, displacement of 125I-CT (Table III), read-out: T-47D IC50.

The Ki is a measure of affinity in units of concentration, obtained from inhibition or displacement. A low value points to a stronger hold on the target. A word on the IC50: it is the concentration that inhibits the measured activity by half. In series [1] (setting [6]), `CC(C)C[C@H](NC(=O)[C@H](CCCCN)NC(=O)CNC(=O)[C@H](CC(C)C)NC(=O)[C@@H](NC(=O)[C@@H]1CCCSCC(=O)N[C@@H](CO)C(=O)N[C@@H](CC(N)=O)C(=O)N[C@@H](CC(C)C)C(=O)N[C@@H](CO)C(=O)N[C@@H]([C@@H](C)O)C(=O)N1)C(C)C)C(=O)N[C@@H](CO)C(=O)N[C@@H](CCC(N)=O)C(=O)N[C@@H](CCC(=O)O)C(=O)N[C@@H](CC(C)C)C(=O)N[C@@H](Cc1c[nH]cn1)C(=O)N[C@@H](CCCCN)C(=O)N[C@@H](CC(C)C)C(=O)N[C@@H](CCC(N)=O)C(=O)N[C@H](C(=O)N[C@@H](Cc1ccc(O)cc1)C(=O)N1CCC[C@H]1C(=O)N[C@@H](CCCNC(=N)N)C(=O)N[C@H](C(=O)N[C@@H](CC(N)=O)C(=O)N[C@H](C(=O)NCC(=O)N[C@@H](CO)C(=O)NCC(=O)N[C@H](C(=O)N1CCC[C@H]1C(=O)NCCCC[C@H](N)C(=O)NCC(=O)N[C@@H](CS)C(N)=O)[C@@H](C)O)[C@@H](C)O)[C@@H](C)O)[C@@H](C)O` [Peptide 2] (SNLST[hhCys(CH2CO)]VLGKLSQELHKLQTYPRTNTGSGTP[εLys]GC-NH2; lactam N-6) yielded a Ki of 12 nM. The figures for the IC50 in series [1] (setting [7]) and in series [2] were 16 nM and 18 nM, respectively. The tissue uptake at […] in series [3] (90 minutes post-injection) amounted to 1.6 %ID/g. Also, the tissue uptake dose at […] in series [3] (GI tract, read-out: GI tract (% ID)) was found to be 5.4 %ID; in series [3] (kidneys, read-out: Kidneys (% ID)), 18 %ID; in series [3] (liver, read-out: Liver (% ID)), 5.5 %ID; in series [3] (lung, read-out: Lung (% ID)), 0.24 %ID. Also, the “Tum:Bld” value in series [4] was found to be 3.3. Further, the “Tum:Con” value in series [4] turned out to be 10.
In series [1] (setting [6]), `CC(C)C[C@H](NC(=O)[C@H](CCCCN)NC(=O)CNC(=O)[C@H](CC(C)C)NC(=O)[C@@H](NC(=O)[C@@H]1CCCSCC(=O)N[C@@H](CO)C(=O)N[C@@H](CC(N)=O)C(=O)N[C@@H](CC(C)C)C(=O)N[C@@H](CO)C(=O)N[C@@H]([C@@H](C)O)C(=O)N1)C(C)C)C(=O)N[C@@H](CO)C(=O)N[C@@H](CSCCCCCN(CCNCC(C)(C)S)CC(C)(C)S)C(=O)N[C@@H](CCC(=O)O)C(=O)N[C@@H](CC(C)C)C(=O)N[C@@H](Cc1c[nH]cn1)C(=O)N[C@@H](CCCCN)C(=O)N[C@@H](CC(C)C)C(=O)N[C@@H](CCC(N)=O)C(=O)N[C@H](C(=O)N[C@@H](Cc1ccc(O)cc1)C(=O)N1CCC[C@H]1C(=O)N[C@@H](CCCNC(=N)N)C(=O)N[C@H](C(=O)N[C@@H](CC(N)=O)C(=O)N[C@H](C(=O)NCC(=O)N[C@@H](CO)C(=O)NCC(=O)N[C@H](C(=O)N1CCC[C@H]1C(N)=O)[C@@H](C)O)[C@@H](C)O)[C@@H](C)O)[C@@H](C)O` [Peptide 1] (SNLST[hhCys(CH2CO)]VLGKLSC(X3)ELHKLQTYPRTNTGSGTP-NH2; lactam N-6) yielded a Ki of 0.41 nM. Besides, the IC50 in series [1] (setting [7]) turned out to be 0.53 nM; in series [2], 2.6 nM.
For the compound `CC(C)C[C@H](NC(=O)[C@H](CCCCN)NC(=O)CNC(=O)[C@H](CC(C)C)NC(=O)[C@@H](NC(=O)[C@@H]1CCCSCC(=O)N[C@@H](CO)C(=O)N[C@@H](CC(N)=O)C(=O)N[C@@H](CC(C)C)C(=O)N[C@@H](CO)C(=O)N[C@@H]([C@@H](C)O)C(=O)N1)C(C)C)C(=O)N[C@@H](CO)C(=O)N[C@@H](CSCC(=O)NCC(=O)NCC(=O)N[C@@H](CS)C(=O)N[C@@H](CCCCN)C(N)=O)C(=O)N[C@@H](CCC(=O)O)C(=O)N[C@@H](CC(C)C)C(=O)N[C@@H](Cc1c[nH]cn1)C(=O)N[C@@H](CCCCN)C(=O)N[C@@H](CC(C)C)C(=O)N[C@@H](CCC(N)=O)C(=O)N[C@H](C(=O)N[C@@H](Cc1ccc(O)cc1)C(=O)N1CCC[C@H]1C(=O)N[C@@H](CCCNC(=N)N)C(=O)N[C@H](C(=O)N[C@@H](CC(N)=O)C(=O)N[C@H](C(=O)NCC(=O)N[C@@H](CO)C(=O)NCC(=O)N[C@H](C(=O)N1CCC[C@H]1C(N)=O)[C@@H](C)O)[C@@H](C)O)[C@@H](C)O)[C@@H](C)O` [Peptide 4] (SNLST[hhCys(CH2CO)]VLGKLSC(X1)ELHKLQTYPRTNTGSGTP-NH2; lactam N-6), the IC50 in series [1] (T-47D cell membranes (Table IV), read-out: IC50 (nM)x) was determined as 2.6 nM. Further, the “PK (min) t½α” value in series [5] is reported as 1.4 min. Moreover, in series [5], the “PK (min) t½β” value was 19 min. In addition, the tissue uptake dose at […] was determined as 2 %ID in series [5] (Sprague-Dawley, GI tract, total radioactivity, read-out: GI tract (% ID)); 35 %ID in series [5] (Sprague-Dawley, kidneys, total radioactivity, read-out: Kidneys (% ID)); 4 %ID in series [5] (Sprague-Dawley, liver, total radioactivity, read-out: Liver (% ID)); 0.53 %ID in series [5] (Sprague-Dawley, lung, total radioactivity, read-out: Lung (% ID)). In series [5] (Sprague-Dawley, blood, total radioactivity), the tissue uptake at […] came to 0.027 %ID/g.
Turning to `CC(C)C[C@H](NC(=O)[C@H](CCCCN)NC(=O)CNC(=O)[C@H](CC(C)C)NC(=O)[C@@H](NC(=O)[C@@H]1CCCSCC(=O)N[C@@H](CO)C(=O)N[C@@H](CC(N)=O)C(=O)N[C@@H](CC(C)C)C(=O)N[C@@H](CO)C(=O)N[C@@H]([C@@H](C)O)C(=O)N1)C(C)C)C(=O)N[C@@H](CO)C(=O)N[C@@H](CSCC(=O)NC[C@H](N)C(=O)N[C@@H](CCCCN)C(=O)N[C@@H](CS)C(=O)N[C@@H](CCCCN)C(N)=O)C(=O)N[C@@H](CCC(=O)O)C(=O)N[C@@H](CC(C)C)C(=O)N[C@@H](Cc1c[nH]cn1)C(=O)N[C@@H](CCCCN)C(=O)N[C@@H](CC(C)C)C(=O)N[C@@H](CCC(N)=O)C(=O)N[C@H](C(=O)N[C@@H](Cc1ccc(O)cc1)C(=O)N1CCC[C@H]1C(=O)N[C@@H](CCCNC(=N)N)C(=O)N[C@H](C(=O)N[C@@H](CC(N)=O)C(=O)N[C@H](C(=O)NCC(=O)N[C@@H](CO)C(=O)NCC(=O)N[C@H](C(=O)N1CCC[C@H]1C(N)=O)[C@@H](C)O)[C@@H](C)O)[C@@H](C)O)[C@@H](C)O` [Peptide 5] (SNLST[hhCys(CH2CO)]VLGKLSC(X2)ELHKLQTYPRTNTGSGTP-NH2; lactam N-6), the “PK (min) t½α” value in series [5] is 1.6 min. Moreover, the “PK (min) t½β” value in series [5] was found to be 17 min. Moreover, in series [5] (in vivo, read-out: Blood (% ID/g)), the tissue uptake at […] came out at 0.048 %ID/g. The tissue uptake dose at […] amounted to 4.5 %ID in series [5] (in vivo, read-out: GI tract (% ID)); 31 %ID in series [5] (in vivo, read-out: Kidneys (% ID)); 5.8 %ID in series [5] (in vivo, read-out: Liver (% ID)); 0.56 %ID in series [5] (in vivo, read-out: Lung (% ID)).
